The subject of experiment [1] is CaNT tumours. Briefly: Induction of necrosis in tumours, scored on haematoxylin and eosin stained sections. The following applies: Carcinoma NT tumour, 24 h post dose, mean score from at least three tumours, control tumours 2.0. The experiment is classed as in vivo, mice. The method, then:
Mice bearing either CaNT or SaS tumours were treated with the test compound and tumours excised after 24 h, fixed in formalin, embedded in paraffin, sectioned and stained with haematoxylin and eosin. Sections were scored based on area of necrosis as follows:
Control tumours had mean scores of 2.0 (CaNT) and 1.0 (SaS). Mean values from at least three different tumours were obtained for each test compound.

Experiment [2] relates to CaNT tumour vasculature. Briefly: Activity against tumour vasculature measured by fluorescent dye (Hoechst 33342): tumour functional vascular volume. The following applies: Carcinoma NT tumour, 24 h post dose. The format is in vivo, mice. Here is the method:
Activity Against Tumour Vasculature Measured by Fluorescent Dye.
Tumour functional vascular volume in CaNT tumour-bearing mice was measured using the fluorescent dye Hoechst 33342 according to the method of Smith et al (Brit J Cancer 57, 247-253, 1988). The fluorescent dye was dissolved in saline at 6.25 mg/ml and injected intravenously at 10 mg/kg 24 hours after drug treatment. One minute later, animals were killed and tumours excised and frozen; 10 μm sections were cut at 3 different levels and observed under UV illumination using an Olympus microscope equipped with epifluorescence. Blood vessels were identified by their fluorescent outlines and vascular volume was quantified using a point scoring system based on that described by Chalkley, (J Natl Cancer Inst, 4, 47-53, 1943). All estimates were based on counting a minimum of 100 fields from sections cut at the 3 different levels.

In the case of `COc1ccc(/C=C\c2cc(OC)c(OC)c(OC)c2)cc1OP(=O)(O)O` [CA4P, Combretastatin A4 phosphate], the Necrosis score in experiment [1] (50 mg/kg i.p.) came to 6.0; in experiment [1] (50 mg/kg i.v.) it was 5.7. The results for the “Vascular volume % reduction” value in experiment [2] (50 mg/kg i.p.) and in experiment [2] (50 mg/kg i.v.) were 91% and 88%, respectively.

In experiment [1] (50 mg/kg i.v.), `COc1ccc(/C=C\c2cc(OC)c(OC)c(OC)c2)cc1OC(=O)C(N)CCCN=C(N)N[N+](=O)[O-]` (centres unmarked) [Cmpd. of Example 1, (Z)-1-(4-Methoxy-3-N^G-nitroarginyloxyphenyl)-2-(3,4,5-trimethoxyphenyl)ethene] registered a Necrosis score of 10.0. The “Vascular volume % reduction” value in experiment [2] (50 mg/kg i.v.) was found to be 98%.

On to `COC(=O)C(CCCN=C(N)N[N+](=O)[O-])NC(=O)Oc1cc(/C=C\c2cc(OC)c(OC)c(OC)c2)ccc1OC` (centres unmarked) [Cmpd. of Example 2, (Z)-N-[2-methoxy-5-[2-(3,4,5-trimethoxyphenyl)ethenyl]phenoxycarbonyl]N^G-nitroarginine Methyl Ester], for which the Necrosis score in experiment [1] (50 mg/kg i.p.) worked out at 8.0. The “Vascular volume % reduction” value in experiment [2] (50 mg/kg i.p.) is 95%.

The values above are taken from patent publication US7265136B1, “Substituted stilbene compounds with vascular damaging activity” (Angiogene Pharmaceuticals Ltd., priority 1999, dated 2007).
